The record followed here is US20250101338A1, “BIOMASS DERIVED SURFACE-ACTIVE COMPOSITIONS AND PRODUCTS” (Cambridge Glycoscience Ltd, priority 2021, published 2025).

A short description of data set [1]: Critical micellular concentration determination (Example 78). It is filed as physicochemical. As to conditions: deionized water. The procedure: Stock solutions were prepared of known weight concentration (range spanning 0.005 wt %-5.000 wt %) of inventive surface-active compositions (by solution of the appropriate weight of example composition in deionized water). For reference, the surface tension of deionized water in the absence of a surface-active composition is 73 mN. […] The surface tensions of the solutions at the concentration of the CMC were also noted. Results are shown in table 10 and graphical results are depicted in FIG. 22.

The nature of data set [2]: Aqueous solubility noted at preparation. It is filed as physicochemical. The procedure:
Solid N-decyl xylosylamine (7.6 g) was suspended in 2-propanol (60 mL) and triethylamine (2 equiv.) then acetic anhydride (1.6 equiv.) was added slowly. Stirring continued at ambient temperature for 10 h. Water (50 mL) was added, and the mixture stirred for 5 min. Dichloromethane (50 mL) was added and the phases separated. The aqueous phase was extracted with additional DCM. The combined organic phase washed with saturated aqueous NH4Cl solution, then the aqueous phase extracted with additional DCM. The combined organic phases were dried over anhydrous magnesium sulfate, filtered, then concentrated under reduced pressure to give a yellow oil. The oil was purified by FCC eluting with MeOH (2-15%) in DCM (120 g normal phase silica cartridge with wet loading). Fractions containing the product were combined and evaporated to dryness to give the desired product (4.1 g, 49%) as a yellow gum. LC-MS (Method A), Rt=1.69 min, [M+H]+=332.2. The gum product can be dissolved in water to form solutions of 50 wt % or greater.
The process was carried out in essentially the same manner as in Example 11 a) step (ii) but using the solid product of Example 11 reaction c) step (i) and the crude product was instead purified by FCC eluting with MeOH (2-13%) in DCM. There were obtained 1.4 g of cream gum product. LC-MS (Method A), Rt=1.87 min, [M+H]^+=360.5.

As to `CCCCCCCCCCN(C(C)=O)C1OC[C@@H](O)[C@H](O)[C@H]1O` (stereo partly shown) [Example 11 composition, N-decyl N-acetyl xylosylamine], in data set [1], the “Solution Surface tension at CMC” value is 36 mN. In data set [1] (from surface tension at 0.005-5.000 wt %), the CMC turned out to be 0.04 wt %. For the same compound, in data set [2] (gum product dissolved in water), the “Concentration of solutions formed in water” value was at least 50 wt %. The “Aqueous solubility (in words)” value in data set [2] (water, room temperature) is reported as “excellent aqueous solubility”.
